The values that follow come from patent US7045665B2, “Glucopyranosyloxybenzylbenzene derivatives, medicinal compositions containing the same and intermediates for the preparation of the derivatives” (Kissei Pharmaceutical Co., Ltd., priority 2000, dated 2006).

In general, IC50 refers to the point on the concentration scale where inhibition reaches its midpoint. Low readings indicate greater potency, high ones weaker potency.

The structures appear in SMILES notation.

Data set [1] deals with T1, human SGLT2 (Homo sapiens, UniProt P31639, I433V).
T1 construct: expressed in transfected cells; host or cells: COS-7 cells (RIKEN CELL BANK RCB0539), transient, electroporation
T1 sequence (P31639 1-672 I433V): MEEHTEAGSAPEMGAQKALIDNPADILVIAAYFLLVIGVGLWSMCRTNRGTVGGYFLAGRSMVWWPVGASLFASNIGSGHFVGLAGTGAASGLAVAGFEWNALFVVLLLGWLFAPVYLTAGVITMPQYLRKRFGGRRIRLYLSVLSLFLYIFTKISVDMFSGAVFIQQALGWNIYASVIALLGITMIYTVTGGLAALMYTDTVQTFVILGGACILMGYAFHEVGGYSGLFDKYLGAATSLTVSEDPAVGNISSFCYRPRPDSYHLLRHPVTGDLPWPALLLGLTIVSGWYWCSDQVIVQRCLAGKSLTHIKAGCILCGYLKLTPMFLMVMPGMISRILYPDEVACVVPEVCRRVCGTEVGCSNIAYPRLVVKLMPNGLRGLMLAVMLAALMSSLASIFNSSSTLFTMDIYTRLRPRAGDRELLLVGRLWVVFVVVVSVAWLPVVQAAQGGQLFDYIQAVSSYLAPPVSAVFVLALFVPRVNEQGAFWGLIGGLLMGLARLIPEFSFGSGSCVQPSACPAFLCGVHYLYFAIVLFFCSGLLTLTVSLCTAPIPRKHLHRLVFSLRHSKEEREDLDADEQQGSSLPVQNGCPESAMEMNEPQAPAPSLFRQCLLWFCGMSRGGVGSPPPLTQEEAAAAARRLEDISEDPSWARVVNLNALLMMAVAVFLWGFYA
Kind of data set: Assay for inhibitory effect on human SGLT2 activity (uptake of methyl-α-D-glucopyranoside). Particulars: COS-7 cells transiently expressing human SGLT2; uptake of methyl-α-D-(U-14C)glucopyranoside, 37° C., 2 hours. It is filed as cell-based. On the procedure: Assay for Inhibitory Effect on Human SGLT2 Activity
Preparation of the cDNA library for PCR amplification was performed by reverse transcription of a total RNA deprived from human kidney (Ori gene) with oligo dT as the primer, using […] Preamplification System (Gibco-BRL: LIFE TECHNOLOGIES). […] The amplified DNA fragment was ligated into pCR-Blunt (Invitrogen), a vector for cloning, according to standard method of the kit. […] The amplified DNA fragment was digested with restriction enzymes, Xho I and Hind III, and then purified with Wizard Purification System (Promega).
KL29, the plasmid coding human SGLT2, was transfected into COS-7 cells (RIKEN CELL BANK RCB0539) by electroporation. Electroporation was performed with GENE PULSER II (Bio-Rad Laboratories) under the condition: 0.290 kV, 975 μF, 2×10^6 cells of COS-7 cell and 20 μg of KL29 in 500 μL of OPTI-MEM I medium (Gibco-BRL: LIFE TECHNOLOGIES) in the 0.4 cm type cuvette. After the gene transfer, the cells were harvested by centrifugation and resuspended with OPTI-MEM I medium (1 mL/cuvette). To each well in 96-wells plate, 125 μL of this cell suspension was added.

For data set [2], the system named is urinary glucose excretion. Kind of data set: Assay for the facilitatory effect on urinary glucose excretion. In kind it is in vivo. The settings on record: SD rats, 1 mg/kg intravenous, oral glucose 2 g/kg; in 24 hours per 200 g of body weight. Here is the method: Assay for the Facilitatory Effect on Urinary Glucose Excretion
As experimental animal, overnight fasted SD rats (SLC., male, 7 weeks of age, 180–240 g) were used. Ten mg of test compound was suspended or dissolved in 300 μL of ethanol and then dissolved by adding of 1.2 mL of polyethylene glycol 400 and 1.5 mL of saline, and then 3.3 mg/mL solution was prepared. Three hundred μL of this solution was dissolved with 2.7 mL of the solution for dilution (saline:polyethylene glycol 400:ethanol=5:4:1) and then 0.33 mg/mL solution was prepared. After the body weights of rats were measured, the solution of test compound was intravenously injected to the tail vein at the dose of 3 mL/kg (1 mg/kg). For control, just only the solution (saline:polyethylene glycol 400:ethanol=5:4:1) was intravenously injected to the tail vein at the dose of 3 mL/kg. Immediately after intravenous injection to the tail vein, 200 g/L of glucose solution was orally administered to the rats at the dose of 10 mL/kg (2 g/kg). The intravenous injection to the tail vein was performed with 26 G injection needle and 1 mL syringe. The oral administration was performed with gastric tube for rat and 2.5 mL syringe. The head count in one group was 2 or 3. Collection of urine was performed in metabolic cage after the oral administration of glucose was finished. The sampling time for collection of urine was 24 hours after the oral administration of glucose. After the collection of urine was finished, the urine volume was recorded and the urinary glucose concentration was measured. The glucose concentration was measured with a kit for laboratory test: Glucose B-Test WAKO (Wako Pure Chemical Industries, Ltd.). The amount of urinary glucose excretion in 24 hours per 200 g of body weight was calculated from urine volume, urinary glucose concentration and body weight.

Data set [3] deals with ICR mice. The experiment in a line: Acute toxicity test. It is filed as in vivo. Particulars: male ICR mice, 2000 mg/kg subcutaneous, 5 animals. Here is the method: Five weeks old male ICR mice (CLEA JAPAN, INC. 29–34 g, 5 animals in each group) were fasted for 4 hours, and 666 mg/mL of a suspension which was prepared by adding saline:polyethylene glycol 400:ethanol (5:4:1) to 2-[4-(2-hydroxyethyl)benzyl]phenyl β-D-glucopyranoside (the compound described in Example 10) was subcutaneously administered at the dose of 3 mL/kg (2000 mg/kg).

On to `CCc1ccc(Cc2ccc(CO)cc2O[C@@H]2O[C@H](CO)[C@@H](O)[C@H](O)[C@H]2O)cc1` [Example 8, 2-(4-Ethylbenzyl)-5-hydroxymethylphenyl β-D-glucopyranoside], for which the IC50 in data set [1] came out at 8.1 nM. Further, the “Amount of urinary glucose excretion” value in data set [2] came to 238.9 mg.

`CCCOc1ccc(Cc2ccc(CO)cc2O[C@@H]2O[C@H](CO)[C@@H](O)[C@H](O)[C@H]2O)cc1` [Example 7, 5-Hydroxymethyl-2-(4-propoxybenzyl)phenyl β-D-glucopyranoside] returned an IC50 in data set [1] of 140 nM. For the same compound, the “Amount of urinary glucose excretion” value in data set [2] was 109.1 mg.

For the compound `OCCc1ccc(Cc2ccccc2O[C@@H]2O[C@H](CO)[C@@H](O)[C@H](O)[C@H]2O)cc1` [Example 10, 2-[4-(2-Hydroxyethyl)benzyl]phenyl β-D-glucopyranoside], in data set [1], the midpoint of inhibition, the IC50, lay at 210 nM. The “Amount of urinary glucose excretion” value in data set [2] is given as 69.5 mg. The “Death until 24 hours after the administration” value in data set [3] was “No death was observed”.

On to `COc1ccc(Cc2ccccc2O[C@@H]2O[C@H](CO)[C@@H](O)[C@H](O)[C@H]2O)cc1` [Example 1, 2-(4-Methoxybenzyl)phenyl β-D-glucopyranoside], for which the “Amount of urinary glucose excretion” value in data set [2] is reported as 27.4 mg.

In turn, `OCCCc1ccc(Cc2ccccc2O[C@@H]2O[C@H](CO)[C@@H](O)[C@H](O)[C@H]2O)cc1` [Example 11, 2-[4-(3-Hydroxypropyl)benzyl]phenyl β-D-glucopyranoside] came in with a half-maximal inhibitory concentration (IC50) in data set [1] of 75 nM.

The compound `OCCc1ccc(Cc2ccc(CO)cc2O[C@@H]2O[C@H](CO)[C@@H](O)[C@H](O)[C@H]2O)cc1` [Example 9, 2-[4-(2-Hydroxyethyl)benzyl]-5-hydroxymethylphenyl β-D-glucopyranoside] displayed an IC50 in data set [1] of 27 nM.
